Values quoted from earlier work as cited in patent US7022342B2, “Controlled release oral dosage form of beta-adrenergic blocking agents” (Andrx Corporation, Inc., priority 2002, dated 2006).

Legend:
[1] = after oral administration of the conventional tablets

solubility in water: freely soluble
time of peak plasma concentrations [1]: 60 to 90 min
SMILES: CC(C)NCC(O)COc1cccc2ccccc12 (centres unmarked) [Propranolol]
